Results taken from PubChem BioAssay (NCI).
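GI50 marks 50% less growth. TGI denotes the concentration required for complete inhibition of growth.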

Tests used:
Assay in all cases: NCI tumour cell line growth inhibition, 384-well format
NCI-H23 lung = system: NCI-H23 lung
NCI-H322M lung = system: NCI-H322M lung
NCI-H460 NSCLC = system: NCI-H460 NSCLC
NCI-H522 lung = system: NCI-H522 lung
OVCAR-3 ovarian = system: OVCAR-3 ovarian
OVCAR-4 ovarian = system: OVCAR-4 ovarian
OVCAR-5 ovarian = system: OVCAR-5 ovarian
OVCAR-8 ovarian = system: OVCAR-8 ovarian
PC-3 prostate = system: PC-3 prostate
RXF 393 renal = system: RXF 393 renal
SF-268 CNS = system: SF-268 CNS
SF-295 CNS = system: SF-295 CNS
SF-539 CNS = system: SF-539 CNS
SK-MEL-2 melanoma = system: SK-MEL-2 melanoma
SK-MEL-28 melanoma = system: SK-MEL-28 melanoma
SK-MEL-5 melanoma = system: SK-MEL-5 melanoma
SK-OV-3 ovarian = system: SK-OV-3 ovarian
SN12C renal = system: SN12C renal
SNB-19 CNS = system: SNB-19 CNS
SNB-75 CNS = system: SNB-75 CNS
SR leukemia = system: SR leukemia
SW-620 colon = system: SW-620 colon
T-47D breast = system: T-47D breast
TK-10 renal = system: TK-10 renal
U251 glioblastoma = system: U251 glioblastoma
UACC-257 melanoma = system: UACC-257 melanoma
UACC-62 melanoma = system: UACC-62 melanoma
UO-31 renal = system: UO-31 renal

Structure (SMILES): Cn1cc(-c2ccc(CNc3cc(-c4cnc5cc(OCCCN6CCCC6)ccn45)ncn3)cc2)cn1
- TGI (NCI-H23 lung): 23500 nM
- GI50 (NCI-H322M lung): 1920 nM
- TGI (NCI-H322M lung): 3570 nM
- GI50 (NCI-H460 NSCLC): 1320 nM
- TGI (NCI-H460 NSCLC): 2620 nM
- GI50 (NCI-H522 lung): 2090 nM
- TGI (NCI-H522 lung): 3530 nM
- GI50 (OVCAR-3 ovarian): 1840 nM
- TGI (OVCAR-3 ovarian): 3250 nM
- GI50 (OVCAR-4 ovarian): 1550 nM
- TGI (OVCAR-4 ovarian): 2910 nM
- GI50 (OVCAR-5 ovarian): 1690 nM
- TGI (OVCAR-5 ovarian): 3090 nM
- GI50 (OVCAR-8 ovarian): 1720 nM
- TGI (OVCAR-8 ovarian): 3110 nM
- GI50 (PC-3 prostate): 1700 nM
- TGI (PC-3 prostate): 3280 nM
- GI50 (RXF 393 renal): 1530 nM
- TGI (RXF 393 renal): 2870 nM
- GI50 (SF-268 CNS): 1850 nM
- TGI (SF-268 CNS): 3280 nM
- GI50 (SF-295 CNS): 1810 nM
- TGI (SF-295 CNS): 3220 nM
- GI50 (SF-539 CNS): 1180 nM
- TGI (SF-539 CNS): 2410 nM
- GI50 (SK-MEL-2 melanoma): 1840 nM
- TGI (SK-MEL-2 melanoma): 3240 nM
- GI50 (SK-MEL-28 melanoma): 1820 nM
- TGI (SK-MEL-28 melanoma): 3220 nM
- GI50 (SK-MEL-5 melanoma): 1490 nM
- TGI (SK-MEL-5 melanoma): 2820 nM
- GI50 (SK-OV-3 ovarian): 1800 nM
- TGI (SK-OV-3 ovarian): 3210 nM
- GI50 (SN12C renal): 1770 nM
- TGI (SN12C renal): 3160 nM
- GI50 (SNB-19 CNS): 1740 nM
- TGI (SNB-19 CNS): 3410 nM
- GI50 (SNB-75 CNS): 1790 nM
- TGI (SNB-75 CNS): 3190 nM
- GI50 (SR leukemia): 1690 nM
- TGI (SR leukemia): 3070 nM
- GI50 (SW-620 colon): 1690 nM
- TGI (SW-620 colon): 3090 nM
- GI50 (T-47D breast): 1900 nM
- TGI (T-47D breast): 3330 nM
- GI50 (TK-10 renal): 1780 nM
- TGI (TK-10 renal): 3180 nM
- GI50 (U251 glioblastoma): 1790 nM
- TGI (U251 glioblastoma): 3200 nM
- GI50 (UACC-257 melanoma): 1530 nM
- TGI (UACC-257 melanoma): 2870 nM
- GI50 (UACC-62 melanoma): 1830 nM
- TGI (UACC-62 melanoma): 3230 nM
- GI50 (UO-31 renal): 1750 nM
- TGI (UO-31 renal): 3140 nM
